Measurements taken from US20250346600A1, “TRICYCLIC DERIVATIVES AND RELATED USES” (MOMA Therapeutics, Inc., priority 2023, published 2025).
Like-named read-outs stand apart in the source and are kept apart here.

What was measured:
[1] = target: Full length WRN protein (aa 2-1432) (Homo sapiens (Human), UniProt Q14191); assay: WRN ATPase ADP-Glo biochemical assay, Assay Format B (100 μM ATP); settings: 0.25 nM WRN, 100 nM C6.18 ssDNA, 60 min preincubation, read-out: ATPase ADPGlo AC50 (uM)- Assay Format B
[2] = test system: HCT116 cells; assay: HCT116 (MSI) 7 day viability, CellTiter Glo; type: cell-based; settings: 7 days, read-out: HCT116 (MSI) Viability 7 Day Abs AC50
Experimental: (§1) Compounds were dissolved in DMSO to a concentration of 10 mM. Compounds were then serially diluted in 10 3-fold steps in DMSO using an EVO (Tecan). Plates were then spun down for 1 minute at 1,000 RPM at room temperature.
(§2) The colon carcinoma lines HCT116 (RRID: CVCL_0291) and HT29 (RRID: CVCL_0320) were obtained from ATCC. […] All cells were maintained at 37° C. with 5% CO2 incubator.
(§3) After harvesting, cells were spun down for 5 minutes at 1200 RPM. Cells were resuspended in 10 mL of growth media and counted using Countess (Thermo Fisher). Cell concentrations were adjusted to 50 cells/well for HCT116 and 500 cells/well for HT29. 50 μL of diluted cells were added to compound treated 384 well plates using a 12 channel, 300 uL electronic handheld pipette (Integra). Cell treated plates were placed in 37 C with 5% CO2 incubator for 7 days.
(§4) Afterwards, cells were removed from incubator and equilibrated to room temperature for 15 minutes. 35 uL of CellTiter Glo (Promega #G7573) reagent were added to each well using a 12 channel, 300 uL electronic handheld pipette (Integra). Plates were incubated for 20 minutes at room temperature. Luminescence quantification was performed using Envision (PerkinElmer).
(§5) For data analysis, the assay background signal was determined in wells containing medium, but no cells. Potencies were calculated by linear least squares fit to the four-parameter logistic IC50 equation. The reported IC50 values are the geometrical mean of at least 2 independent replicates.

[3] = test system: HT29 cells; assay: HT29 (MSS) 7 day viability, CellTiter Glo; type: cell-based; settings: 7 days, read-out: HT29 (MSS) Viability 7 Day CTGAbs AC50
Experimental: as §1, §2, §3, §4, §5

Chain of Full length WRN protein (aa 2-1432) (Q14191 2-1432): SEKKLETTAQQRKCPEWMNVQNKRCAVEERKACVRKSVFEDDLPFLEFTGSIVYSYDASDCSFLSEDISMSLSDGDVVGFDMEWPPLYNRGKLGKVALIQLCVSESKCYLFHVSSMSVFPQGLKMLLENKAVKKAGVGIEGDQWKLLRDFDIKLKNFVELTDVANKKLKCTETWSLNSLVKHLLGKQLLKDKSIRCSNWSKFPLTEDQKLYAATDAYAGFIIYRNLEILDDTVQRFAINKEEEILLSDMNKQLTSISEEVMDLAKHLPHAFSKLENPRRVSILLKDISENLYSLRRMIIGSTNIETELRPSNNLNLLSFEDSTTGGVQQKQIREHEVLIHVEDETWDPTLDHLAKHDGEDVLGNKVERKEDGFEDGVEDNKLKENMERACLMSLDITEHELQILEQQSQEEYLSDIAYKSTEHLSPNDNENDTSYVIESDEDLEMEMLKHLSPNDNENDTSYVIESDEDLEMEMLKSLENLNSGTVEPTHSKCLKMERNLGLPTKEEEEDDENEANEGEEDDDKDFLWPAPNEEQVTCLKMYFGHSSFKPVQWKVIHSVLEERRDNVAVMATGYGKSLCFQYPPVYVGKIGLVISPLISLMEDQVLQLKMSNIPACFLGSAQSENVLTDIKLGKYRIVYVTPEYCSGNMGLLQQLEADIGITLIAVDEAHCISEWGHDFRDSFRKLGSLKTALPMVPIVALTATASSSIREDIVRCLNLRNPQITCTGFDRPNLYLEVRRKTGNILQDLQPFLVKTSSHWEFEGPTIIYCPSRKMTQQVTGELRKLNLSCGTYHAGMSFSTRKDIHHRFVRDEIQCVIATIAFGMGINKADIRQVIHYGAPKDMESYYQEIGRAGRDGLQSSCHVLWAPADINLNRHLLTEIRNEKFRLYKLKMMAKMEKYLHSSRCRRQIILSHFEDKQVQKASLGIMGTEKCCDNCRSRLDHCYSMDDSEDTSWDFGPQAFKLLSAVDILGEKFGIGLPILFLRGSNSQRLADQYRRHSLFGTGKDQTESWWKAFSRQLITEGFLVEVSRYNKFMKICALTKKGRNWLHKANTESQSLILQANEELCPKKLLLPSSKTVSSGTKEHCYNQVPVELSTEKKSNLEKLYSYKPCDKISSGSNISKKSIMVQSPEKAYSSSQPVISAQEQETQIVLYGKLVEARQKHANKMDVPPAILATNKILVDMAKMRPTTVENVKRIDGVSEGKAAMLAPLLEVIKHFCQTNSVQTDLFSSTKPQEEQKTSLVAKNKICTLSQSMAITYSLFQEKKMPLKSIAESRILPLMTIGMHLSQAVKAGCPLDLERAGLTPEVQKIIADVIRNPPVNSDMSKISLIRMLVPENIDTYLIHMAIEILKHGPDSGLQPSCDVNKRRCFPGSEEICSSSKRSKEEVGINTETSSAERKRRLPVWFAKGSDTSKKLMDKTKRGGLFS

AC50 [1] [µM]	Compound	AC50 ([2]; Homo sapiens, HCT-116, 168 h) [nM]	AC50 ([3]; Homo sapiens, HT-29, 168 h) [nM]	AC50 [2] [nM]	AC50 [3] [nM]
0.015 to 0.055	C=CC(=O)N1CCc2nn(-c3ccc(C4CC4)cc3O)c3c2C(C1)N(C(=O)c1ccc(C(F)(F)F)c(F)c1N)CC3 (stereo not shown) [Compound 259, 1-(5-(2-amino-3-fluoro-4-(trifluoromethyl)benzoyl)-2-(4-cyclopropyl-2-hydroxyphenyl)-2,3,4,5,5a,6,8,9-octahydro-7H-1,2,5,7-tetraazabenzo[cd]azulen-7-yl)prop-2-en-1-one]	1 to 100	> 3000		
0.0015 to 0.005	C=CC(=O)N1CCc2nn(-c3ccc(C4CC4)cc3O)c3c2C(C1)N(C(=O)c1cnc(Cl)c(F)c1N)CC3 (stereo not shown) [Compound 210, 1-(5-(4-amino-6-chloro-5-fluoronicotinoyl)-2-(4-cyclopropyl-2-hydroxyphenyl)-2,3,4,5,5a,6,8,9-octahydro-7H-1,2,5,7-tetraazabenzo[cd]azulen-7-yl)prop-2-en-1-one]	1 to 100	> 3000		
0.005 to 0.015	C=CC(=O)N1CCc2nn(-c3ccc(C4CCC4)cc3O)c3c2C(C1)N(C(=O)c1cnc(Cl)c(O)c1)CC3 (stereo not shown) [Compound 140, 1-(5-(6-chloro-5-hydroxynicotinoyl)-2-(4-cyclobutyl-2-hydroxyphenyl)-2,3,4,5,5a,6,8,9-octahydro-7H-1,2,5,7-tetraazabenzo[cd]azulen-7-yl)prop-2-en-1-one]	1 to 100	> 3000		
0.005 to 0.015	C=CC(=O)N1CCc2nn(-c3ccc(C4CC4)cc3O)c3c2C(C1)N(C(=O)c1cnc(SC(F)(F)F)c(F)c1N)CC3 (stereo not shown) [Compound 214, 1-(5-(4-amino-5-fluoro-6-((trifluoromethyl)thio)nicotinoyl)-2-(4-cyclopropyl-2-hydroxyphenyl)-2,3,4,5,5a,6,8,9-octahydro-7H-1,2,5,7-tetraazabenzo[cd]azulen-7-yl)prop-2-en-1-one]	1 to 100	> 3000		
0.0015 to 0.005	C=CC(=O)N1CCc2nn(-c3ccc(C4CC4)cc3O)c3c2C(C1)N(C(=O)c1cnc(SC)cc1N)CC3 (stereo not shown) [Compound 211, 1-(5-(4-amino-6-(methylthio)nicotinoyl)-2-(4-cyclopropyl-2-hydroxyphenyl)-2,3,4,5,5a,6,8,9-octahydro-7H-1,2,5,7-tetraazabenzo[cd]azulen-7-yl)prop-2-en-1-one]	1 to 100	> 3000		
0.0015 to 0.005	C=CC(=O)N1CCc2nn(-c3ccc(C4CC4)cc3O)c3c2C(C1)N(C(=O)c1cnc(SC)c(F)c1N)CC3 (stereo not shown) [Compound 223, 1-(5-(4-amino-5-fluoro-6-(methylthio)nicotinoyl)-2-(4-cyclopropyl-2-hydroxyphenyl)-2,3,4,5,5a,6,8,9-octahydro-7H-1,2,5,7-tetraazabenzo[cd]azulen-7-yl)prop-2-en-1-one]	1 to 100	> 3000		
0.0015 to 0.005	C=CC(=O)N1CCc2nn(-c3ccc(C4CC4)cc3)c3c2C(C1)N(C(=O)c1c(N)nc(C(F)(F)F)c(F)c1N)CC3 (stereo not shown) [Compound 220, 1-(2-(4-cyclopropylphenyl)-5-(2,4-diamino-5-fluoro-6-(trifluoromethyl)nicotinoyl)-2,3,4,5,5a,6,8,9-octahydro-7H-1,2,5,7-tetraazabenzo[cd]azulen-7-yl)prop-2-en-1-one]	1 to 100	> 3000		
0.015 to 0.055	C=CC(=O)N1CCc2nn(-c3ccc(C4CC4)cc3)c3c2C(C1)N(C(=O)c1cnc(C(F)(F)F)cc1NC)CC3 (stereo not shown) [Compound 179, 1-(2-(4-cyclopropylphenyl)-5-(4-(methylamino)-6-(trifluoromethyl)nicotinoyl)-2,3,4,5,5a,6,8,9-octahydro-7H-1,2,5,7-tetraazabenzo[cd]azulen-7-yl)prop-2-en-1-one]	100 to 250	> 3000		
0.005 to 0.015	C=CC(=O)N1CCc2nn(-c3ccc(C4CCC4)cc3O)c3c2C(C1)N(C(=O)c1ccc(C(F)(F)F)nc1N)CC3 (stereo not shown) [Compound 76, 1-(5-(2-amino-6-(trifluoromethyl)nicotinoyl)-2-(4-cyclobutyl-2-hydroxyphenyl)-2,3,4,5,5a,6,8,9-octahydro-7H-1,2,5,7-tetraazabenzo[cd]azulen-7-yl)prop-2-en-1-one]	1 to 100	> 3000		
0.005 to 0.015	C=CC(=O)N1CCc2nn(-c3ccc(C4CC4)c(F)c3O)c3c2C(C1)N(C(=O)c1cnc(C(C)(F)F)c(F)c1N)CC3 (stereo not shown) [Compound 227, 1-(5-(4-amino-6-(1,1-difluoroethyl)-5-fluoronicotinoyl)-2-(4-cyclopropyl-3-fluoro-2-hydroxyphenyl)-2,3,4,5,5a,6,8,9-octahydro-7H-1,2,5,7-tetraazabenzo[cd]azulen-7-yl)prop-2-en-1-one]	1 to 100	< 1000		
0.0015 to 0.005	C=CC(=O)N1CCc2nn(-c3ccc(C4CC4)cc3O)c3c2C(C1)N(C(=O)c1cnc(C(F)(F)F)c(O)c1)CC3 (stereo not shown) [Compound 175, 1-(2-(4-cyclopropyl-2-hydroxyphenyl)-5-(5-hydroxy-6-(trifluoromethyl)nicotinoyl)-2,3,4,5,5a,6,8,9-octahydro-7H-1,2,5,7-tetraazabenzo[cd]azulen-7-yl)prop-2-en-1-one]	100 to 250	> 3000		
0.0015 to 0.005	C=CC(=O)N1CCc2nn(-c3ccc(C4CC4)cc3O)c3c2C(C1)N(C(=O)c1cnc(C(F)(F)F)c(OC)c1N)CC3 (stereo not shown) [Compound 216, 1-(5-(4-amino-5-methoxy-6-(trifluoromethyl)nicotinoyl)-2-(4-cyclopropyl-2-hydroxyphenyl)-2,3,4,5,5a,6,8,9-octahydro-7H-1,2,5,7-tetraazabenzo[cd]azulen-7-yl)prop-2-en-1-one]			1 to 100	> 3000
0.005 to 0.015	C=CC(=O)N1CC(OC2CC2)c2nn(-c3ccc(C4CC4)cc3O)c3c2C(C1)N(C(=O)c1cnc(C(F)(F)F)cc1N)CC3 (stereo not shown) [Compound 232, 1-(5-(4-amino-6-(trifluoromethyl)nicotinoyl)-9-cyclopropoxy-2-(4-cyclopropyl-2-hydroxyphenyl)-2,3,4,5,5a,6,8,9-octahydro-7H-1,2,5,7-tetraazabenzo[cd]azulen-7-yl)prop-2-en-1-one]	1 to 100	> 3000		
0.0015 to 0.005	C=CC(=O)N1CCc2nn(-c3ccc(C(C)C)cc3O)c3c2C(C1)N(C(=O)c1cnc(C(F)(F)F)c2[nH]ncc12)CC3 (stereo not shown) [Compound 176, 1-(2-(2-hydroxy-4-isopropylphenyl)-5-(7-(trifluoromethyl)-1H-pyrazolo[3,4-c]pyridine-4-carbonyl)-2,3,4,5,5a,6,8,9-octahydro-7H-1,2,5,7-tetraazabenzo[cd]azulen-7-yl)prop-2-en-1-one]	1 to 100	> 3000		
0.0015 to 0.005	C=CC(=O)N1CCc2nn(-c3ccc(C4CCC4)cc3O)c3c2C(C1)N(C(=O)c1cnc(Br)cc1N)CC3 (stereo not shown) [Compound 132, 1-(5-(4-amino-6-bromonicotinoyl)-2-(4-cyclobutyl-2-hydroxyphenyl)-2,3,4,5,5a,6,8,9-octahydro-7H-1,2,5,7-tetraazabenzo[cd]azulen-7-yl)prop-2-en-1-one]	1 to 100	> 3000		
0.015 to 0.055	C=CC(=O)N1CCc2nn(-c3ccc(C4CC4)cc3CO)c3c2C(C1)N(C(=O)c1cnc(C(F)(F)F)cc1N)CC3 (stereo not shown) [Compound 225, 1-(5-(4-amino-6-(trifluoromethyl)nicotinoyl)-2-(4-cyclopropyl-2-(hydroxymethyl)phenyl)-2,3,4,5,5a,6,8,9-octahydro-7H-1,2,5,7-tetraazabenzo[cd]azulen-7-yl)prop-2-en-1-one]	100 to 250	> 3000		
0.0015 to 0.005	C=CC(=O)N1CCc2nn(-c3ccc(C4CC4)cc3O)c3c2C(C1)N(C(=O)c1cnc(C(F)(F)F)c(C)c1N)CC3 (stereo not shown) [Compound 208, 1-(5-(4-amino-5-methyl-6-(trifluoromethyl)nicotinoyl)-2-(4-cyclopropyl-2-hydroxyphenyl)-2,3,4,5,5a,6,8,9-octahydro-7H-1,2,5,7-tetraazabenzo[cd]azulen-7-yl)prop-2-en-1-one]	1 to 100	> 3000		
	C=CC(=O)N1CCOc2nn(-c3ccc(C(C)C)c(O)n3)c3c2C(C1)N(C(=O)c1ccc(Br)c2[nH]cnc12)CC3 (stereo not shown) [Compound 105, 1-(5-(7-bromo-1H-benzo[d]imidazole-4-carbonyl)-2-(6-hydroxy-5-isopropylpyridin-2-yl)-2,3,4,5,5a,6,8,9-octahydro-7H-10-oxa-1,2,5,7-tetraazacycloocta[cd]inden-7-yl)prop-2-en-1-one]	> 1000	> 3000		
	1-(5-(7-bromo-1H- benzo[d]imidazole-4- carbonyl)-2-(4- cyclobutylphenyl)- 2,3,4,5,5a,6-hexahydro- 1,2,5,7- tetraazaspiro[benzo[cd] azulene-9,1′- cyclopropan]-1(9a),2a- dien-7(8H)-yl)prop-2-en- 1-one [Compound 169]			1 to 100	> 3000
